pIC50: −log10 of the molar value. Where two headings read alike, the source gives them in different places.
Experiments:
[1] = test system: P. falciparum female gametocytes; assay: P. falciparum Dual Gamete Formation Assay (PfDGFA), female readout (Pfs25-positive female gametes); assay type: cell-based, Plasmodium falciparum NF54
How it was run: (§1)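 First, day-14 P. falciparum NF54 gametocytes receive compound for 24 h at 37°C in 1% O2/3% CO2. Next, ookinete medium with Cy3 anti-Pfs25 triggers gametogenesis at 28°C and male exflagellation is imaged. Finally, after 24 h in the dark, Cy3-labelled females are imaged.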

[2] = test system: P. falciparum male gametocytes; assay: P. falciparum Dual Gamete Formation Assay (PfDGFA), male readout (exflagellation); assay type: cell-based, Plasmodium falciparum NF54; conditions: for Activity: hit = >50% inhibition in male or female readout in at least 3 replicates, 0 = no class assigned
How it was run: as §1

[3] = 2µM, 24h preincubation with gametocytes prior to induction of gametogenesis, average of replicates
[4] = 2µM, 24h preincubation with gametocytes prior to induction of gametogenesis, replicate R1
[5] = 2µM, 24h preincubation with gametocytes prior to induction of gametogenesis, replicate R3
[6] = 2µM, 24h preincubation with gametocytes prior to induction of gametogenesis, replicate R4
[7] = 2µM, 24h preincubation, number of replicates with >50% inhibition in the female readout
[8] = 2µM, 24h preincubation, number of replicates with >50% inhibition in the male readout
[9] = PfDGFA at 2µM, 24h preincubation with gametocytes, average of replicates
[10] = PfDGFA at 2µM, 24h preincubation with gametocytes, replicate R1
[11] = PfDGFA at 2µM, 24h preincubation with gametocytes, replicate R3
[12] = PfDGFA at 2µM, 24h preincubation with gametocytes, replicate R4
[13] = number of replicates with >50% inhibition in the female readout, 2µM
[14] = number of replicates with >50% inhibition in the male readout, 2µM
[15] = 2µM, 24h preincubation, hits selected on >50% inhibition in the female readout across replicates
[16] = 2µM, 24h preincubation, hits selected on >50% inhibition in the male readout across replicates
[17] = PfDGFA at 2µM, 24h preincubation
[18] = PfDGFA at 2µM, 24h preincubation with gametocytes prior to induction of gametogenesis, replicate R1
[19] = PfDGFA at 2µM, 24h preincubation with gametocytes prior to induction of gametogenesis, replicate R3
[20] = PfDGFA at 2µM, 24h preincubation with gametocytes prior to induction of gametogenesis, replicate R4
[21] = PfDGFA at 2µM, 24h preincubation, average of replicates

Row | SMILES | Average inhibition female (%) [1, 3] [%] | % inhibition female (individual replicates) R1 [1, 4] [%] | % inhibition female (individual replicates) R3 [1, 5] [%] | % inhibition female (individual replicates) R4 [1, 6] [%] | HitlevelF [1, 7] | Average inhibition male (%) [2, 3] [%] | % inhibition male (individual replicates) R1 [2, 4] [%] | % inhibition male (individual replicates) R3 [2, 5] [%] | % inhibition male (individual replicates) R4 [2, 6] [%] | HitlevelM [2, 8] | also measured
1 | COc1cc2nc(N3CCN(C(=O)c4c(Cl)nsc4-c4ccccc4Cl)CC3)nc(N)c2cc1OC.O=C(O)C(F)(F)F [TCMDC-138186] | 23.5 | 19.4 | 2.1 | 50.6 | 1 | 36.4 | 33.1 | -9.1 | 66.9 | 2 | 
2 | Cl.Cn1ccc(-c2cccc(Nc3ccnc4cc(-c5nccs5)ccc34)c2)n1 [TCMDC-138336] | 19.1 | 19.3 | 21.6 | 9.3 | 0 | 33.2 | 36.9 |  | 5.3 | 1 | 
3 | CN(C)CCNCc1ccc(-c2ccc3c(Nc4ccc(Oc5ccccc5)cc4)ccnc3c2)o1 [TCMDC-138399] |  |  |  |  |  |  |  |  |  |  | Average inhibition female (%) [1, 9]: 26.2%; % inhibition female (individual replicates) R1 [1, 10]: 29.8%; % inhibition female (individual replicates) R3 [1, 11]: 23.6%; % inhibition female (individual replicates) R4 [1, 12]: 16.9%; HitlevelF [1, 13]: 0; Average inhibition male (%) [2, 9]: 74.5%; % inhibition male (individual replicates) R1 [2, 10]: 82.1%; % inhibition male (individual replicates) R3 [2, 11]: 51.0%; % inhibition male (individual replicates) R4 [2, 12]: 85.6%; HitlevelM [2, 14]: 4
4 | CN1CCN(Cc2nc(-c3ccc4c(Nc5ccc(Oc6ccccc6)cc5)ccnc4c3)cs2)CC1 [TCMDC-138409] | 17.5 | 9.4 | 19.5 | 18.6 |  | 49.4 | 33.1 | 19.5 | 56.9 |  | HitlevelF [1, 15]: 0; HitlevelM [2, 16]: 2; Activity [2, 17]: 0
5 | CN1CCN(Cc2nc(-c3ccc4c(Nc5ccc(F)c(O)c5)ccnc4c3)cs2)CC1 [TCMDC-138439] | 3.7 | 13.1 | -10.3 | 4.9 |  | 3.8 | -1.6 | 1.0 | 20.9 |  | HitlevelF [1, 15]: 0; HitlevelM [2, 16]: 0; Activity [2, 17]: 0
6 | CS(=O)(=O)CCNCc1ccc(-c2ccc3c(Nc4ccc(Cl)cc4F)ccnc3c2)o1 [TCMDC-138445] |  |  |  |  |  |  |  |  |  |  | % inhibition female (individual replicates) R1 [1, 18]: 4.7%; % inhibition female (individual replicates) R3 [1, 19]: -15.0%; % inhibition female (individual replicates) R4 [1, 20]: 12.7%; Average inhibition female (%) [1, 21]: -1.7%; % inhibition male (individual replicates) R1 [2, 18]: -15.4%; % inhibition male (individual replicates) R3 [2, 19]: 14.3%; % inhibition male (individual replicates) R4 [2, 20]: -10.6%; Average inhibition male (%) [2, 21]: -2.9%
7 | CN(C)CCN(C)Cc1ccc(-c2ccc3c(Nc4ccc(F)cc4Cl)ccnc3c2)o1 [TCMDC-138447] | 19.6 | 22.4 | -11.7 | 48.1 | 0 | 33.6 | 23.0 | -2.6 | 53.6 | 2 | 
8 | c1ccc(Oc2ccc(Nc3ccnc4cc(-c5cccc(CNCCN6CCOCC6)c5)ccc34)cc2)cc1 [TCMDC-138474] | 29.1 | 38.4 | 13.4 | 18.2 | 0 | 19.3 | 25.4 | -12.1 | 25.6 | 0 | 
9 | CN1CCN(Cc2cccc(-c3ccc4c(Nc5ccc(Oc6ccccc6)cc5)ccnc4c3)c2)CC1 [TCMDC-138476] | 18.5 | 35.6 | -5.5 | 24.1 | 0 | -8.7 | -12.6 | -7.4 | -11.7 | 0 | 
10 | O=C(Cc1cccc(O)c1)NCC(Cc1ccc(O)cc1)c1ccccc1 (stereo not shown) [TCMDC-138482] |  |  |  |  |  |  |  |  |  |  | Selectivity ratio F ([1]; HepG2 Tox50 versus female IC50): 10; inhibition at 2 µM ([1]; Plasmodium falciparum, 2µM, 24h preincubation with gametocytes, average of replicates, read-out: Average inhibition female (%)): 28.1%; inhibition at 2 µM ([1]; Plasmodium falciparum, 2µM, 24h preincubation with gametocytes, replicate R1, read-out: % inhibition female (individual replicates) R1): 32.7%; inhibition at 2 µM ([1]; Plasmodium falciparum, 2µM, 24h preincubation with gametocytes, replicate R2, read-out: % inhibition female (individual replicates) R2): 38.2%; inhibition at 2 µM ([1]; Plasmodium falciparum, 2µM, 24h preincubation with gametocytes, replicate R3, read-out: % inhibition female (individual replicates) R3): 28.5%; inhibition at 2 µM ([1]; Plasmodium falciparum, 2µM, 24h preincubation with gametocytes, replicate R4, read-out: % inhibition female (individual replicates) R4): 13.2%; pIC50 ([1]; Plasmodium falciparum, PfDGFA, 24 h incubation with gametocytes before induction, female gamete readout, read-out: Female IC50): < 5.00; Selectivity Ratio M ([2]; HepG2 Tox50 versus male IC50): 58.17; inhibition at 2 µM ([2]; Plasmodium falciparum, 2µM, 24h preincubation with gametocytes, average of replicates, read-out: Average inhibition male (%)): 97.3%; inhibition at 2 µM ([2]; Plasmodium falciparum, 2µM, 24h preincubation with gametocytes, replicate R1, read-out: % inhibition male (individual replicates) R1): 97.5%; inhibition at 2 µM ([2]; Plasmodium falciparum, 2µM, 24h preincubation with gametocytes, replicate R2, read-out: % inhibition male (individual replicates) R2): 95.7%; inhibition at 2 µM ([2]; Plasmodium falciparum, 2µM, 24h preincubation with gametocytes, replicate R3, read-out: % inhibition male (individual replicates) R3): 95.7%; inhibition at 2 µM ([2]; Plasmodium falciparum, 2µM, 24h preincubation with gametocytes, replicate R4, read-out: % inhibition male (individual replicates) R4): 100%; pIC50 ([2]; Plasmodium falciparum, PfDGFA, 24 h incubation with gametocytes before induction, exflagellation readout, read-out: Male IC50): 5.76
11 | COc1cc2nc(N3CCC(CCCC4CCNCC4)CC3)nc(NCc3ccccn3)c2cc1OC.O=C(O)C(F)(F)F [TCMDC-138494] |  |  |  |  |  |  |  |  |  |  | Average inhibition female (%) [1, 9]: 59.5%; % inhibition female (individual replicates) R1 [1, 10]: 47.2%; % inhibition female (individual replicates) R3 [1, 11]: 73.7%; % inhibition female (individual replicates) R4 [1, 12]: 83.6%; HitlevelF [1, 13]: 2; Average inhibition male (%) [2, 9]: 68.1%; % inhibition male (individual replicates) R1 [2, 10]: 83.7%; % inhibition male (individual replicates) R3 [2, 11]: 75.6%; % inhibition male (individual replicates) R4 [2, 12]: 100.2%; HitlevelM [2, 14]: 3
12 | COc1ccc(Cn2c(Nc3cccc(C(F)(F)F)c3)nc3ccc(C(=O)NCCN4CCCC4)cc32)cc1Cl [TCMDC-138531] | 9.2 | 9.3 | -11.0 | 18.4 |  | -2.0 | 6.1 | 3.4 | -8.5 |  | HitlevelF [1, 15]: 0; HitlevelM [2, 16]: 0; Activity [2, 17]: 0

From article PMC10584170, “Machine learning-based phenotypic imaging to characterise the targetable biology of Plasmodium falciparum male gametocytes for the development of transmission-blocking antimalarials” (PLOS Pathogens, 2023)
